This assay has as its target T1, histamine 3 receptor (H3R) (Homo sapiens, UniProt Q9Y5N1).
T1 construct: expressed in transfected cells; host or cells: CHO cells (HR3-CHO)
The assay can be described thus: Binding assay with 3H-(R)α-methylhistamine, competition binding on membranes of the human HR3-CHO cell line. The following applies: competition with 3H(R)α-methylhistamine (1 nM), Ki calculated from IC50 by Cheng-Prusoff. The protocol: Binding Assay with ^3H-(R)α-methylhistamine
Saturation binding experiments were performed using HR3-CHO membranes prepared as described in Takahashi, K, Tokita, S., Kotani, H. (2003) J. Pharmacol. Exp. Therapeutics 307, 213-218.
An appropriate amount of membrane (60 to 80 μg protein/well) was incubated with increasing concentrations of ^3H(R)α-Methylhistamine di-hydrochloride (0.10 to 10 nM). Non specific binding was determined using a 200 fold excess of cold (R)α-Methylhistamine dihydrobromide (500 nM final concentration). The incubation was carried out at room temperature (in deep-well plates shaking for three hours). The final volume in each well was 250 μl. The incubation was followed by rapid filtration on GF/B filters (pre-soaked with 100 μl of 0.5% PEI in Tris 50 mM shaking at 200 rpm for two hours). The filtration was made using a cell-harvester and the filter plates were then washed five times with ice cold washing buffer containing 0.5 M NaCl. After harvesting, the plates were dried at 55° C. for 60 min, then we added scintillation fluid (Microscint 40, 40 microl in each well) and the amount of radioactivity on the filter was determined in Packard top-counter after shaking the plates for two hours at 200 rpm at room temperature.
Binding Buffer: 50 mM Tris-HCl pH 7.4 and 5 mM MgCl2×6H2O pH 7.4. Washing Buffer: 50 mM Tris-HCl pH 7.4 and 5 mM MgCl2×6H2O and 0.5 M NaCl pH 7.4.
Indirect measurement of affinity of H3R inverse agonists: twelve increasing concentrations (ranging from 10 μM to 0.3 nM) of the selected compounds were always tested in competition binding experiments using membrane of the human HR3-CHO cell line. […]
All compounds were tested at a single concentration in duplicates. […] Ki's were calculated from IC50 based on Cheng-Prusoff equation (Cheng, Y, Prusoff, W H (1973) Biochem Pharmacol 22, 3099-3108).

Our source for the Ki values is patent publication US7786143B2, “Thiazolyl piperidine derivatives” (Hoffman-La Roche Inc., priority 2005, dated 2010).

T1 sequence (Q9Y5N1 whole entry): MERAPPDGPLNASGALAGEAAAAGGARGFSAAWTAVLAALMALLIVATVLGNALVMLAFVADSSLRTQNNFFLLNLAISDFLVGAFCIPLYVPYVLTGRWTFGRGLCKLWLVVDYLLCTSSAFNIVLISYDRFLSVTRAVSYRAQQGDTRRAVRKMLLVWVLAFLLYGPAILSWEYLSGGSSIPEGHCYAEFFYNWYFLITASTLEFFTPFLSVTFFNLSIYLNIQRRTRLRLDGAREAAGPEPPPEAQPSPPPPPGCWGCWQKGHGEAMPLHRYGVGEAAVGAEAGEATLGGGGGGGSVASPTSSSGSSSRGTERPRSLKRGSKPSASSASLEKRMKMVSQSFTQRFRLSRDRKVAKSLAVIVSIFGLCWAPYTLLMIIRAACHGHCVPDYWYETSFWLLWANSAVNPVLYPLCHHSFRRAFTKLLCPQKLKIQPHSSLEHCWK

On to `COc1ccc(-c2csc(C3CCN(C(C)C)CC3)n2)cc1` [Example 9, 1-isopropyl-4-[4-(4-methoxy-phenyl)-thiazol-2-yl]-piperidine], for which the Ki was 28 nM.

For `c1cc2c(cc1-c1csc(C3CCN(C4CCCC4)CC3)n1)OCCO2` [Example 52, 1-cyclopentyl-4-[4-(2,3-dihydro-benzo[1,4]dioxin-6-yl)-thiazol-2-yl]-piperidine], the Ki was 123 nM.

On to `CC1CCCCN1C(=O)c1csc(C2CCN(C3CCCC3)CC2)n1` (stereo not drawn) [Example 68, [2-(1-cyclopentyl-piperidin-4-yl)-thiazol-4-yl]-(2-methyl-piperidin-1-yl)-methanone], for which the Ki was 156 nM.

The term Ki denotes a measure of affinity in units of concentration, obtained from inhibition or displacement.
